Experiments:
[1] = Binding affinity to recombinant TNFalpha (unknown origin) expressed in Escherichia coli BL21 (DE3) assessed as Kd for TNF-alpha-TNFR1 binding at 10 uM pe-incubated for 15 mins before TNFR1 addition and measured after 15 mins by MST assay (Rvb = 0.23 uM)
[2] = Binding affinity to recombinant TNFalpha (unknown origin) expressed in Escherichia coli BL21 (DE3) assessed as Kd for TNF-alpha-TNFR1 binding at 100 uM pe-incubated for 15 mins before TNFR1 addition and measured after 15 mins by MST assay (Rvb = 0.23 uM)

Q: For `O=C1C[C@H](Nc2ncnc3[nH]cnc23)CN1Cc1ccccc1`, which Kd [1] is on record?
A: 4.26 µM

Q: What about the Kd [2] of the same molecule?
A: 19.6 µM

Source: BindingDB's records for doi:10.1021/acs.jmedchem.0c00377 (Huazhong University of Science and Technology, 2020)
